For eight molecules, inhibition, Ki and IC50 results are on record in patent US5700817A, “Cyclic lipid derivatives as potent PAF antagonists” (Pohang Iron & Steel Co., Ltd., priority 1993, dated 1997).

Assay [1] relates to PAF-induced [^14 C]serotonin release, rabbit platelets. The assay can be described thus: Inhibitory action on PAF-induced [14C]-serotonin release from rabbit platelets. The class given is cell-based, New Zealand white male rabbits. The note with it: Oryctolagus cuniculus, Platelet, PAF 1×10^-9 M; for inhibition at 0.05 µM: test compound 5 × 10^-8 M; for inhibition at 0.005 µM: test compound 5 × 10^-9 M. The procedure:
The following pharmacological test examples explain the effects of the present invention in a more concrete manner.
Inhibitory action on PAF-induced [^14 ]-serotonin release
Blood was collected from the hearts of conscious New Zealand white male rabbits weighing 2 to 3 kg. The blood was immediately subjected to a centrifuge at 1400 rpm for 10 minutes to obtain platelet rich plasma(PRP).PRP was incubated with a trace amount of [^14 C]-serotonin for 20 minutes at 22° C. Prelabelled platelets were prepared by centrifugation at 3500 rpm for 10 minutes. The test compound was added to 80 μl of [^14 C]serotonin-labeled platelets in plastic test tubes, and the mixture was incubated for 2 minutes. PAF (1×10 ^-9 M) was then added to the reaction mixture and incubated for additional 2 minutes at which time 10 μl of cold formaldehyde was added to stop the reactions. The tubes were immediately cooled to 4° C. and centrifuged at 12000 rpm for 2 minutes. The supernatants (80 μl) were assayed for percentage of [^14 C]serotonin release by the conventional methods of measuring ^14 C counts.

Assay [2] deals with T1, PAF receptor (Oryctolagus cuniculus, UniProt G1TEI7).
T1 construct: Platelet membranes were prepared by centrifugation and washing; tissue Pel-Freez (Rogers, AR), supplier of the citrated whole rabbit blood; host or cells: rabbit platelet membranes
T1 sequence (G1TEI7 1-342): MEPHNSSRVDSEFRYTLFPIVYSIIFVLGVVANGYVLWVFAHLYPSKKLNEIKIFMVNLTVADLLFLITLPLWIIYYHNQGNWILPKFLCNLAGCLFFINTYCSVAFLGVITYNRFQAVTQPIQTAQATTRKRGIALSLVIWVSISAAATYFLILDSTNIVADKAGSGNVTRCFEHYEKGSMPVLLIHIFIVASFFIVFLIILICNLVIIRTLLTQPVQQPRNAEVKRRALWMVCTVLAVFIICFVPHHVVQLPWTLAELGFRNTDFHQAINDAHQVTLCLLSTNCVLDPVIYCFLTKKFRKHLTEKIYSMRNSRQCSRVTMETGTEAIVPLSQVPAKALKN
As to the kind of experiment: PAF Receptor Binding Assay ([3H]C18-PAF, rabbit platelet membranes). On the procedure:
PAF Receptor Binding Assay Citrated whole rabbit blood was obtained from Pel-Freez(Rogers, AR). Rabbit platelets were prepared by centrifugation and washing. The platelets were lysed by freeze-thawing and sonification; Platelet membranes were prepared by centrifugation and washing. Final membrane preparation were stored frozen in 10 mM Tris/5 mM MgCl2 /2 mM EDTA (TME buffer, pH 7.0) with 0.25M sucrose added for membrane stabilization. […] The final volume of the assay was 1001 μl. The assay was conducted in Millititer-GV™(Millipore Corp.) filtration plates; incubation time was for 60 minutes at room temperature (22°-23° C.). […] The filters were dried and removed. The bound radioactivity was quantiated with a Berthold TLC-Linear Analyzer model LB2842. […] Experiments were repeated at least once. […] Ki values of inhibitory binding constants were calculated according to the methods of the literature[Cheng et al., Biochem.

Assay [3] has as its system PAF-induced platelet aggregation, rabbit platelets. The assay can be described thus: Inhibitory action on PAF-induced platelet aggregation (platelet-rich plasma). The class given is cell-based, New Zealand male rabbits. The note with it: Oryctolagus cuniculus, PAF 5×10^-9 M, 37° C., turbidimetry, rabbit PRP.
Description: Blood was collected from the hearts of conscious New Zealand male rabbits weighing 2 to 3 kg using citric acid as an anticoagulant (one volume part of 3% citric acid relative to 9 volume parts of the whole blood). A platelet-rich plasma(PRP) was prepared by centrifugation at 1000 rpm for 10 minutes. The remaining blood after collecting the PRP was subjected to a centrifuge at 3000 rpm for 10 minutes to obtain platelet poor plasma(PPP). PRP was diluted with PPP to adjust the number of platelets to about 3×10^5 /μl. Solution of test compound (30 μl) was added to the PRP(270 μl), and after incubation for 2 minutes at 37° C., 30 μl aliquot of PAF(5×10^-9 M) was added. Platelet aggregation was then examined by means of turbidimetry [Born, Nature, 194, 927(1962)] with dual channel aggregometer (Chrono-Log. Corp., Havertown, Pa.). As the control, physiological saline without test sample was used. The platelet aggregation inhibiting activities of the test sample are expressed as IC50, that is the concentration of the compound at which 50% of the aggregation is inhibited.

Broadly, the inhibition is how much of the control response was suppressed. Read a high inhibition as a strong effect. As for `CCCCCCCCCCCCCCCCOC[C@H]1C[C@@H](COC(=O)N(Cc2cccc[n+]2CC)C(C)=O)O1` (relative stereo) [Example 1, cis-2-[[N-Acetyl-N-[[[2-[(hexadecyloxy)methyl]-4-oxetanyl]methoxy]carbonyl]amino]methyl]-1-ethyl-pyridinium iodide], in assay [1] (test compound 2 × 10^-7 M), the inhibition at 0.2 µM is 90%.
As to `CCCCCCCCCCCCCCCCCCNC(=O)OC[C@@H]1C[C@H](COC(=O)N(Cc2cccc[n+]2CC)C(C)=O)O1` (relative stereo) [Example 3, cis-2-[[N-Acetyl-N-[[[4-[[(octadecylcarbamoyl)oxy]methyl]-2-oxetanyl]methoxy]carbonyl]amino]methyl]-1-ethyl-pyridinium iodide], 0.05 µM produced 85% inhibition in assay [1].
In assay [1], `CCCCCCCCCCCCCCCCCCNC(=O)OC[C@H]1C[C@H](COC(=O)N(Cc2cccc[n+]2CC)C(C)=O)O1` (relative stereo) [Example 5, trans-2-[[N-Acetyl-N-[[[4-[[(octadecylcarbamoyl)oxy]methyl]-2-oxetanyl]methoxy]carbonyl]amino]methyl]-1-ethyl-pyridinium iodide] returned an inhibition at 0.05 µM of 95% and an inhibition at 0.005 µM of 70%.
Broadly, the Ki is a dissociation constant, usually derived from enzyme kinetics or from competition with a known ligand. Read a high Ki as a looser hold on the target. Turning to `CCCCCCCCCCCCCCCCCCNC(=O)OC[C@H]1C[C@H](COC(=O)N(Cc2cccc[n+]2CC)C(=O)c2ccccc2OC)S1` (relative stereo) [Example 30, trans-2-[[N-(2-Methoxy)benzoyl-N-[[[4-[[(octadecylcarbamoyl)oxy]ethyl]-2-thietanyl]methoxy]carbonyl]amino]-1-ethyl-pyridinium chloride], the Ki in assay [2] stood at 34 nM.
For orientation: IC50 means the concentration that gives 50% inhibition. Read a high IC50 as weaker potency in that assay. The molecule `CCCCCCCCCCCCCCCCOC[C@H]1C[C@H](COC(=O)N(Cc2cccc[n+]2CC)C(=O)c2ccccc2OC)S1` (relative stereo) [Example 33, trans-2-[[N-(2-Methoxy)benzoyl-N-[[[4-[(hexadecyloxy)methyl]-2-thietanyl]methoxy]carbonyl]amino]methyl]-1-ethyl-pyridinium chloride] returned an IC50 in assay [3] of 19 nM.
`CCCCCCCCCCCCCCCCCCNC(=O)OC[C@H]1C[C@H](COC(=O)N(Cc2cccc[n+]2CC)C(C)=O)N1C(=O)c1ccccc1` (relative stereo) [Example 44, 2-[[N-Acetyl-N-[[[4-[[(octadecylcarbamoyl)oxy]methyl]-1-benzoylazetidine-2-yl]methoxy]carbonyl]amino]methyl]-1-ethyl-pyridinium chloride]: the Ki in assay [2] came to 104 nM.
Turning to `CCCCCCCCCCCCCCCCCCNC(=O)OCC1(COC(=O)N(Cc2cccc[n+]2CC)C(C)=O)COC1` [Example 6, 2-[[-Acetyl-N-[[[3-[[(octadecylcarbamoyl)oxy]methyl]-3-oxetanyl]methoxy]carbonyl]amino]methyl]-1-ethyl-pyridinium iodide], in assay [1], the inhibition at 0.005 µM was determined as 75%.
On to `CCCCCCCCCCCCCCCCCCNC(=O)OCC1(COC(=O)CCCCC[n+]2ccsc2)COC1` [Example 13, 3-[5-[[[3-[[(Octadecylcarbamoyl)oxy]methyl]-3-oxetanyl]methoxy]carbonyl]pentyl]thiazolium bromide], for which 0.05 µM produced 85% inhibition in assay [1].
